Measured values as given in patent CN101260112A, “含噻吩并[3.2-c]吡啶的乙酰肼衍生物及其制备方法和用途” (Tianjin Institute of Pharmaceutical Research Co Ltd, priority 2008, dated 2008).

System: ADP-induced platelet aggregation (ADP诱导的血小板聚集)
Experiment: Effect of compounds of formula I on ADP-induced platelet aggregation (rats dosed orally, turbidimetric method)
Format: in vivo
Settings: male Wistar rat, 10 mg/kg oral gavage, blood taken 2 h after dosing, inducer ADP (final concentration 5 μM), turbidimetry, 37℃; for inhibition at 10 mg/kg: Platelet, vs control, read-out: inhibition rate; for maximum aggregation: control 54.8±5.8

Work on NNC(=O)C(c1ccc(F)cc1)N1CCc2sccc2C1 (stereo not drawn) [化合物1, α,α-[(4-氟苯基)-(4,5,6,7-四氢噻吩并[3,2-c]吡啶-5-基)]乙酰肼] yielded an inhibition at 10 mg/kg of 48.2% and a maximum aggregation of 28.4±8.1.
CC(C)=NNC(=O)C(c1ccc(Cl)cc1)N1CCc2sccc2C1 (stereo not drawn) [化合物2, α,α-[(4-氯苯基)-(4,5,6,7-四氢噻吩并[3,2-c]吡啶-5-基)]-N′-(二甲基甲叉基)乙酰肼] showed an inhibition at 10 mg/kg of 58.8% and a maximum aggregation of 22.6±3.9.
O=C(NN=Cc1ccccc1Cl)C(c1cccc(Cl)c1)N1CCc2sccc2C1 (stereo not drawn) [化合物3, α,α-[(3-氯苯基)-(4,5,6,7-四氢噻吩并[3,2-c]吡啶-5-基)]-N′-[(2-氯苯基)甲叉基]乙酰肼] was tested, and the inhibition at 10 mg/kg was 18.2% and the maximum aggregation was 44.8±11.1.
In the case of Cc1ccc(C=NNC(=O)C(c2ccc(Cl)cc2)N2CCc3sccc3C2)cc1 (stereo not drawn) [化合物4, α,α-[(4-氯苯基)-(4,5,6,7-四氢噻吩并[3,2-c]吡啶-5-基)]-N′-[(4-甲基苯基)甲叉基]乙酰肼], the inhibition at 10 mg/kg is reported as 34.3% and the maximum aggregation is reported as 36.0±6.9.
Work on O=C(NN=Cc1ccccc1O)C(c1cccc(F)c1)N1CCc2sccc2C1 (stereo not drawn) [化合物5, α,α-[(3-氟苯基)-(4,5,6,7-四氢噻吩并[3,2-c]吡啶-5-基)]-N′-[(2-羟基苯基)甲叉基]乙酰肼] yielded an inhibition at 10 mg/kg of 33.5% and a maximum aggregation of 38.7±10.6.
For COc1ccc(C=NNC(=O)C(c2cccc(F)c2)N2CCc3sccc3C2)cc1 (stereo not drawn) [化合物6, α,α-[(3-氟苯基)-(4,5,6,7-四氢噻吩并[3,2-c]吡啶-5-基)]-N′-[(4-甲氧基苯基)甲叉基]乙酰肼], the inhibition at 10 mg/kg was 32.5% and the maximum aggregation was 33.9±12.3.
O=C(NN=Cc1cccc([N+](=O)[O-])c1)C(c1ccc(Cl)c(Cl)c1)N1CCc2sccc2C1 (stereo not drawn) [化合物7, α,α-[(3,4-二氯苯基)-(4,5,6,7-四氢噻吩并[3,2-c]吡啶-5-基)]-N′-[(3-硝基苯基)甲叉基]乙酰肼] was tested, and the inhibition at 10 mg/kg was 23.3% and the maximum aggregation was 36.0±9.3.
Molecule O=C(NN=Cc1ccc(-c2ccc(Cl)cc2)o1)C(c1cccc(Cl)c1)N1CCc2sccc2C1 (stereo not drawn) [化合物8, α,α-[(3-氯苯基)-(4,5,6,7-四氢噻吩并[3,2-c]吡啶-5-基)]-N′-[[5-(4-氯苯)呋喃-2-基]甲叉基]乙酰肼] has an inhibition at 10 mg/kg of 64.4% and a maximum aggregation of 38.7±10.9.
O=C(NN=Cc1ccco1)C(c1cccc(F)c1)N1CCc2sccc2C1 (stereo not drawn) [化合物9, α,α-[(3-氟苯基)-(4,5,6,7-四氢噻吩并[3,2-c]吡啶-5-基)]-N′-[(呋喃-2-基)甲叉基]乙酰肼] showed an inhibition at 10 mg/kg of 28.6% and a maximum aggregation of 41.0±13.4.
Molecule CCCCc1nc(Cl)c(C=NNC(=O)C(c2cccc(Cl)c2)N2CCc3sccc3C2)[nH]1 (stereo not drawn) [化合物10, α,α-[(3-氯苯基)-(4,5,6,7-四氢噻吩并[3,2-c]吡啶-5-基)]-N′-[[(2-正丁基-4-氯-咪唑-5-基)甲叉基]乙酰肼] has an inhibition at 10 mg/kg of 39% and a maximum aggregation of 42.9±12.6.
O=C(NN=C1CCCCC1)C(c1cccc(Cl)c1)N1CCc2sccc2C1 (stereo not drawn) [化合物11, α,α-[(3-氯苯基)-(4,5,6,7-四氢噻吩并[3,2-c]吡啶-5-基)]-N′-(环己叉基)乙酰肼] gave an inhibition at 10 mg/kg of 43.1% and a maximum aggregation of 31.2±12.1.
O=C(NN=C1CCCc2ccccc21)C(c1ccc(Cl)cc1)N1CCc2sccc2C1 (stereo not drawn) [化合物12, α,α-[(4-氯苯基)-(4,5,6,7-四氢噻吩并[3,2-c]吡啶-5-基)]-N′-(α-四氢萘叉基)乙酰肼] was tested, and the inhibition at 10 mg/kg was 35.3% and the maximum aggregation was 36.2±7.4.
COC(=O)[C@H](c1ccccc1Cl)N1CCc2sccc2C1 [硫酸氯吡格雷, reference compound] was tested, and the maximum aggregation was 9.1±3.5.
